The values below come from patent US12497408B2, “Tetracyclic compounds and methods for the treatment of Zika virus infection” (priority 2021, dated 2025).

Like-named read-outs stand apart in the source and are kept apart here. Some results are limits rather than exact numbers.

The test system of this experiment is ZIKV. Briefly: ZIKV reporter virus-based antiviral screening on Huh7 cells. The class given is cell-based, Zika virus. Particulars: Huh7 cells infected with recombinant luciferase reporter ZIKV (MOI about 0.1), luciferase signal. From the text:
Protocol for ZIKV reporter virus-based antiviral screening on Huh7 cells:
• Human hepatocyte-derived carcinoma cell line (Huh7) 2. Reagents • ViviRen™ Live Cell Substrate (Promega, Cat #E6492) or Nano Glo assay system (Promega: N1130) • White opaque 96-well TC-treated microplates (Corning, Cat #3916) • 96-well Clear V-Bottom TC-treated Microplate (Corning, Cat #3894) • Complete cell culture media: DMEM (Gibco, Cat #10569) supplemented with 10% FBS (HyClone, Cat #SH30071.03IH25-40)+1% MEM Non-Essential Amino Acids Solution 100×(Gibco, Cat #11140050)+1% Penicillin-Streptomycin (10,000 U/mL) (Gibco, Cat #15140122). • Assay media: DMEM media (Gibco, Cat #31053028) supplemented with 2% FBS, 2% GlutaMAX™ Supplement (Gibco Cat #35050061), 1% Sodium Pyruvate solution (Gibco, Cat #11360070), 1% MEM Non-Essential Amino Acids Solution 100× and 1% Penicillin-Streptomycin (10,000 U/mL). • Trypsin-EDTA solution (Gibco, Cat #25200056) 3. Virus • Recombinant ZIKV strain with Renilla luciferase gene (strain FSS-Rlu) or Nano luciferase gene (Strain PRV-Nano, Dakar-Nano) 4. Instruments • BioTek Cytation 5 or other plate-readers for chemiluminescence detection model. • Eppendorf plate centrifuge • Plate shaker • Eppendorf multichannel pipettes Procedures Day 1: Preparation of Cells • Human hepatocyte-derived carcinoma cell line (Huh7) cells were detached from a T-175 flask by using a Trypsin-EDTA solution. The detached cells were suspended in complete culture media in a sterile 50-ml conical tube. • The 50-ml conical tube was centrifuged at 1200×rpm for 3 min at room temperature. • The cells were resuspended in assay media. The cell numbers were counted, and the cells diluted to a density of 3×10^5 cells/ml. • The cells were plated at 50 μl cells per well in White opaque 96-well plates (assay plates). Gently shake the plates to ensure cells to attach to the plate evenly. • The plated cells were incubated in a humidified incubator (37° C. with 5% CO2). Day 2: Infection • 1) Nine serial (2-fold or 3-fold) concentrated compounds were prepared using 90% DMSO solution and DMSO controls in a clear V-bottom 96-well plate (compound plate). • For example:
• 2) The reporter virus stock was diluted to a concentration of 3×10^4 FFU (FFU: focus-forming unit)/ml using the assay media. 200 μl diluted virus per well was aliquoted into a clear V-bottom 96-well plate (mixing plate). • 3) 1 μl above 400×concentrated compound dilutions was added from the compound plate to each well of the mixing plate. The plates were shaken on a plate shaker for 5 min. • 4) 50 μl compound-virus mixture was added into each well of the assay plates (the MOI is about 0.1). The plates were shaken gently by mixing the virus evenly. • An example of the format for assay plate:
• control. • 5) The plates were centrifuged at 1000 rpm for 15 s. • 6) The plates were incubated at 37° C. with 5% CO2 in a humidified incubator for 48 hrs. Day 4: Read Luciferase Signals • 7) The ViviRen™ Live Cell Substrate was diluted in assay media for 3000× folds. 25 μl of diluted substrates was added into each well of the assay plates. • For Nano-Glo assay system, 50 μl diluted substrates (50×fold diluted from the stock in assay buffer) were added. • 8) The plates were incubated at room temperature for 5 min. • 9) Optimally, cell viability is measured using the Promega Cell-titer Glo kit (only used when ZIKV-Rlu was used for infection). • 10) Luciferase signals were read using the Cytation 5 with gain value of 120-150. Data Analysis • a. The luciferase signals from DMSO-treated groups (un-treated controls) were set as 100%. The relative luciferase signals were obtained by normalizing the luciferase signals from each dilution-treated group to that of the controls. • b.
In general terms: Reporter assays use an easily measured gene product as a stand-in for the process of interest.

In general, EC50 refers to the concentration at which the effect is half-maximal.

Consider `COC(=O)N[C@H](C(=O)N1C[C@@H](C)C[C@H]1c1nc(Cl)c(-c2cc3c4c(c2)OCc2cc(-c5[nH]c([C@@H]6C[C@H](C)CN6C(=O)[C@@H](NC(=O)OC)C(C)C)nc5Br)cc(c2-4)OC3)[nH]1)C(C)C` [Compound 69, methyl ((S)-1-((2S,4S)-2-(4-bromo-5-(7-(4-chloro-2-((2S,4S)-1-((methoxycarbonyl)-L-valyl)-4-methylpyrrolidin-2-yl)-1H-imidazol-5-yl)-5,10-dihydrochromeno[5,4,3-cde]chromen-2-yl)-1H-imidazol-2-yl)-4-methylpyrrolidin-1-yl)-3-methyl-1-oxobutan-2-yl)carbamate], for which the EC50 (Zika virus, Huh-7, 48 h) is 11.6 nM.

On to `CC[C@H](C)[C@H](NC(=O)OC)C(=O)N1C[C@@H](OC)C[C@H]1c1nc(Cl)c(-c2cc3c4c(c2)OCc2cc(-c5[nH]c([C@@H]6C[C@H](OC)CN6C(=O)[C@@H](NC(=O)OC)[C@@H](C)CC)nc5Cl)cc(c2-4)OC3)[nH]1` [Compound 5, dimethyl ((2S,2′S,3S,3′S)-((3S,3′S,5S,5′S)-((5,10-dihydrochromeno[5,4,3-cde]chromene-2,7-diyl)bis(4-chloro-1H-imidazole-5,2-diyl))bis(3-methoxypyrrolidine-5,1-diyl))bis(3-methyl-1-oxopentane-1,2-diyl))dicarbamate], for which the EC50 (Zika virus, Huh-7, 48 h) was found to be 12.4 nM.

In the case of `COC(=O)N[C@H](C(=O)N1[C@H](c2nc(Cl)c(-c3cc4c5c(c3)OCc3cc(-c6[nH]c([C@@H]7C[C@@H]8CCCC[C@@H]8N7C(=O)[C@@H](NC(=O)OC)C(C)(C)C(F)(F)F)nc6Cl)cc(c3-5)OC4)[nH]2)C[C@@H]2CCCC[C@@H]21)C(C)(C)C(F)(F)F` [Compound 38, dimethyl ((2S,2′S)-((2S,2′S,3aS,3a′S,7aS,7a′S)-((5,10-dihydrochromeno[5,4,3-cde]chromene-2,7-diyl)bis(4-chloro-1H-imidazole-5,2-diyl))bis(octahydro-1H-indole-2,1-diyl))bis(4,4,4-trifluoro-3,3-dimethyl-1-oxobutane-1,2-diyl))dicarbamate], where the note is “Zika virus, Huh-7, 48 h”, the EC50 came out at 25.6 nM.

For `COC(=O)N[C@H](C(=O)N1[C@@H](C)CC[C@H]1c1nc(C(C)C)c(-c2cc3c4c(c2)OCc2cc(-c5[nH]c([C@@H]6CC[C@H](C)N6C(=O)[C@@H](NC(=O)OC)C(C)(C)C(F)(F)F)nc5C(C)C)cc(c2-4)OC3)[nH]1)C(C)(C)C(F)(F)F` [Compound 42, dimethyl ((2S,2′S)-((2S,2′S,5S,5′S)-((5,10-dihydrochromeno[5,4,3-cde]chromene-2,7-diyl)bis(4-isopropyl-1H-imidazole-5,2-diyl))bis(2-methylpyrrolidine-5,1-diyl))bis(4,4,4-trifluoro-3,3-dimethyl-1-oxobutane-1,2-diyl))dicarbamate], the EC50 (Zika virus, Huh-7, 48 h) was 1.9 nM.

Take `COC(=O)N[C@H](C(=O)N1CCC[C@H]1c1nc(C2CC2)c(-c2cc3c4c(c2)OCc2cc(-c5[nH]c([C@@H]6CCCN6C(=O)[C@@H](NC(=O)OC)C(C)C)nc5C5CC5)cc(c2-4)OC3)[nH]1)C(C)C` [Compound 17, dimethyl ((2S,2′S)-((2S,2′S)-((5,10-dihydrochromeno[5,4,3-cde]chromene-2,7-diyl)bis(4-cyclopropyl-1H-imidazole-5,2-diyl))bis(pyrrolidine-2,1-diyl))bis(3-methyl-1-oxobutane-1,2-diyl))dicarbamate]: the EC50 (Zika virus, Huh-7, 48 h) stood at 74.5 nM.

Consider `COC(=O)N[C@H](C(=O)N1C[C@@H](OC)C[C@H]1c1nc(Cl)c(-c2cc3c4c(c2)OCc2cc(-c5[nH]c([C@@H]6C[C@H](OC)CN6C(=O)[C@@H](NC(=O)OC)C(C)C)nc5Cl)cc(c2-4)OC3)[nH]1)C(C)C` [Compound 4, dimethyl ((2S,2′S)-((3S,3′S,5S,5′S)-((5,10-dihydrochromeno[5,4,3-cde]chromene-2,7-diyl)bis(4-chloro-1H-imidazole-5,2-diyl))bis(3-methoxypyrrolidine-5,1-diyl))bis(3-methyl-1-oxobutane-1,2-diyl))dicarbamate], for which the EC50 (Zika virus, Huh-7, 48 h) worked out at 19.2 nM.

With `COC(=O)N[C@H](C(=O)N1CCC[C@H]1c1nc(Cl)c(-c2cc3c4c(c2)OCc2cc(-c5[nH]c([C@@H]6CCCN6C(=O)[C@@H](NC(=O)OC)C(C)(C)C)nc5Cl)cc(c2-4)OC3)[nH]1)C(C)(C)C` [Compound 26, dimethyl ((2S,2′S)-((2S,2′S)-((5,10-dihydrochromeno[5,4,3-cde]chromene-2,7-diyl)bis(4-chloro-1H-imidazole-5,2-diyl))bis(pyrrolidine-2,1-diyl))bis(3,3-dimethyl-1-oxobutane-1,2-diyl))dicarbamate], where the note is “Zika virus, Huh-7, 48 h”, the EC50 was found to be 1.6 nM.

`CC(C)[C@H](NC(=O)C1CC1)C(=O)N1CCC[C@H]1c1nc(Cl)c(-c2cc3c4c(c2)OCc2cc(-c5[nH]c([C@@H]6CCCN6C(=O)[C@@H](NC(=O)C6CC6)C(C)C)nc5Cl)cc(c2-4)OC3)[nH]1` [Compound 25, N,N′-((2S,2′S)-((2S,2′S)-((5,10-dihydrochromeno[5,4,3-cde]chromene-2,7-diyl)bis(4-chloro-1H-imidazole-5,2-diyl))bis(pyrrolidine-2,1-diyl))bis(3-methyl-1-oxobutane-1,2-diyl))dicyclopropanecarboxamide]: where the note is “Zika virus, Huh-7, 48 h”, the EC50 amounted to 21.9 nM.

`COC(=O)N[C@H](C(=O)N1C[C@H](F)C[C@H]1c1nc(Cl)c(-c2cc3c4c(c2)OCc2cc(-c5[nH]c([C@@H]6C[C@@H](F)CN6C(=O)[C@@H](NC(=O)OC)C(C)(C)C(F)(F)F)nc5Cl)cc(c2-4)OC3)[nH]1)C(C)(C)C(F)(F)F` [Compound 55, dimethyl ((2S,2′S)-((3R,3′R,5S,5′S)-((5,10-dihydrochromeno[5,4,3-cde]chromene-2,7-diyl)bis(4-chloro-1H-imidazole-5,2-diyl))bis(3-fluoropyrrolidine-5,1-diyl))bis(4,4,4-trifluoro-3,3-dimethyl-1-oxobutane-1,2-diyl))dicarbamate]: the EC50 (Zika virus, Huh-7, 48 h) is 4.7 nM.

Regarding `CC[C@H](C)[C@H](NC(=O)OC)C(=O)N1C[C@@H](C)C[C@H]1c1nc(Cl)c(-c2cc3c4c(c2)OCc2cc(-c5[nH]c([C@@H]6C[C@H](C)CN6C(=O)[C@@H](NC(=O)OC)[C@@H](C)CC)nc5C(C)C)cc(c2-4)OC3)[nH]1` [Compound 73, methyl ((2S,3S)-1-((2S,4S)-2-(5-(7-(4-chloro-2-((2S,4S)-1-((methoxycarbonyl)-1-isoleucyl)-4-methylpyrrolidin-2-yl)-1H-imidazol-5-yl)-5,10-dihydrochromeno[5,4,3-cde]chromen-2-yl)-4-isopropyl-1H-imidazol-2-yl)-4-methylpyrrolidin-1-yl)-3-methyl-1-oxopentan-2-yl)carbamate], where the note is “48 hrs, read-out: EC50”, the EC50 turned out to be 3.2 nM.

With `COC(=O)N[C@@H](C(=O)N1CC2(CC2)C[C@H]1c1nc(Cl)c(-c2cc3c4c(c2)OCc2cc(-c5[nH]c([C@@H]6CC7(CC7)CN6C(=O)[C@H](NC(=O)OC)C(C)C)nc5C(C)C)cc(c2-4)OC3)[nH]1)C(C)C` [Compound 81, methyl ((R)-1-((S)-6-(5-(7-(4-chloro-2-((S)-5-((methoxycarbonyl)-D-valyl)-5-azaspiro[2.4]heptan-6-yl)-1H-imidazol-5-yl)-5,10-dihydrochromeno[5,4,3-cde]chromen-2-yl)-4-isopropyl-1H-imidazol-2-yl)-5-azaspiro[2.4]heptan-5-yl)-3-methyl-1-oxobutan-2-yl)carbamate], the half-maximal effective concentration (EC50) (Zika virus, Huh-7, 48 h) is > 1000 nM.
